Measurements published in patent US9709886B2, “Sulfonic acid derivative compounds as photoacid generators in resist applications” (Heraeus Precious Metals North America Daychem LLC, priority 2015, dated 2017).

Columns and labels:
Format in all cases: physicochemical
[1] = Solubility of PAG in organic solvents at 20° C.; conditions: for Solubility (w/w%) PGMEA: Propylene glycol monomethyl ether acetate; for Solubility (w/w%) GBL: γ-Butyrolactone; for solubility in the tested solvents: PGMEA, GBL; for Solubility (w/w%) Cyclohexanone / solubility in the tested solvents: cyclohexanone
From the text: Solubility is an important factor in the evaluation of a PAG. High solubility not only makes a PAG purified readily but also enables a PAG to be used for a wide range of concentrations in photoresists and in varied solvent systems. To test the solubility of a PAG, a solvent is slowly added until the PAG is completely dissolved and no turbidity is observed in the clear solution. Table 8 lists the solubility (w/w %) of some representative N-hydroxynaphthalimide sulfonate derivatives versus NIT in various organic solvents at 20° C.

[2] = Solubility of PAG in organic solvents at 20° C.; conditions: Table 9; Propylene glycol monomethyl ether acetate
[3] = Photolysis of PAGs in acetonitrile, irradiation at 365 nm (photoreactivity); conditions: for Solubility × Photoreactivity: solubility in PGMEA times relative photoreactivity at 365 nm
From the text: A photoresist composition typically comprises PAG, polymers, additives and solvents. The performance of a photoresist composition is mainly dependent on the properties of the PAG and polymer components. To formulate a high-performance photoresist composition, more photosensitive PAGs are typically selected. The photosensitivity of a PAG is typically directly related to the strength of the generated acid and the photoreactivity of the PAG. For a series of PAGs producing the same latent acid, their photosensitivity is related only to their photoreactivity. Thus evaluating the photosensitivity of a PAG can be achieved by studying its photoreactivity. The higher photoreactivity, the higher photosensitivity. The photoreactivity can be investigated by photolysis of a PAG in its dilute solution under low exposure intensity (to avoid side reactions which don't generate the desired acid). The change in the concentration of a PAG upon irradiation can be determined by measuring the absorbance of the PAG at the maximum absorption wavelength.
(§1) Photolysis of PAGs was carried out in acetonitrile in air at room temperature. The sodium salt of tetrabromophenol blue (TBPBNa), an acid indicator dye, which has a maximum absorption at 618 nm, was purchased from Aldrich (indicator grade) and used as received. Irradiation of the solution of the PAGs (3×10^−5 M) was performed using a Cole-Parmer UV 15 W bench lamp (EW-97605-50) at 365 nm. Light intensity was measured using an UV Power Puck II radiometer from EIT Inc. UV-Vis spectra were run on a Thermo Scientific Evolution 201 UV-visible spectrophotometer.
Photolysis of NIT, comparative compound A and B, T1, T2, T3, and T5 was examined in acetonitrile. […] The absorption band at 362 nm (λmax) gradually decreases upon irradiation, indicating the progress of photoreaction with the increase of exposure dose of energy. Assuming the photoreaction is first-order, a plot of the natural log of changes in absorbance with exposure dose of energy gives the photoreaction constant of T3 (i.e., the slope of the linear trendline) (FIG. 2). The photoreaction constants of other compounds were similarly determined under the same irradiation condition. Comparing the constants of A, B, T1, T2, T3, and T5 with that of NIT normalized to one gives the relative photoreactivity (Table 9). […] The formation of acid upon irradiation was confirmed by observing the spectral changes of the acid indicator, TBPBNa at 618 nm.

UV-Vis spectra in ACN = conditions: FIG. 4, in ACN (0.001% w/v)
Description: FIG. 4 is a UV-Vis spectra of compounds NIT, T1, T2 and T5 in ACN (0.001% w/v).
as §1

## O=C1c2cccc3cccc(c23)C(=O)N1OS(=O)(=O)C(F)(F)F [NIT, N-Hydroxynaphthalimide triflate, reference compound]
[1]
  Solubility (w/w%) PGMEA: 1.7% w/w%
  Solubility (w/w%) Cyclohexanone: 5.9% w/w%
  Solubility (w/w%) GBL: 2.2% w/w%
[2]
  Solubility (w/w%) in PGMEA: 1.7% w/w%
[3]
  Solubility × Photoreactivity: 1.7%

## O=C1c2cccc3c(C#Cc4ccccc4)ccc(c23)C(=O)N1OS(=O)(=O)C(F)(F)F [A, reference compound]
[1]
  Solubility (w/w%) PGMEA: 1.0% w/w%
  Solubility (w/w%) Cyclohexanone: 3.5% w/w%
  Solubility (w/w%) GBL: 0.9% w/w%
[2]
  Solubility (w/w%) in PGMEA: 1.0% w/w%
[3]
  Solubility × Photoreactivity: 2.5%

## CCCCCCC#Cc1ccc2c3c(cccc13)C(=O)N(OS(=O)(=O)C(F)(F)F)C2=O [Compound T2]
[1]
  solubility in the tested solvents: extremely high solubility
  Solubility (w/w%) PGMEA: 45.8% w/w%
  Solubility (w/w%) Cyclohexanone: 52.4% w/w%
  Solubility (w/w%) GBL: 23.1% w/w%
[2]
  Solubility (w/w%) in PGMEA: 45.8% w/w%
UV-Vis spectra in ACN
  absorbance at i-line of a mercury lamp versus NIT: much larger than that of NIT
  absorption maximum: 362 nm
[3]
  Solubility × Photoreactivity: 394%

## CCCCC#Cc1ccc2c3c(cccc13)C(=O)N(OS(=O)(=O)C(F)(F)F)C2=O [B, reference compound]
[1]
  Solubility (w/w%) PGMEA: 6.1% w/w%
  Solubility (w/w%) Cyclohexanone: 11.5% w/w%
  Solubility (w/w%) GBL: 2.3% w/w%
[2]
  Solubility (w/w%) in PGMEA: 6.1% w/w%
[3]
  Solubility × Photoreactivity: 48.8%

## CCCC(=O)OCC#Cc1ccc2c3c(cccc13)C(=O)N(OS(=O)(=O)C(F)(F)F)C2=O [Compound T5]
[1]
  solubility in the tested solvents: extremely high solubility
  Solubility (w/w%) PGMEA: 50.1% w/w%
  Solubility (w/w%) Cyclohexanone: 55.4% w/w%
  Solubility (w/w%) GBL: 32.4% w/w%
[2]
  Solubility (w/w%) in PGMEA: 50.1% w/w%
UV-Vis spectra in ACN
  absorbance at i-line of a mercury lamp versus NIT: much larger than that of NIT
  absorption maximum: 353 nm
[3]
  Solubility × Photoreactivity: 200%

## CCCCCCC#Cc1ccc2c3c(cccc13)C(=O)N(OS(=O)(=O)C(F)(F)C(F)(F)C(F)(F)C(F)(F)F)C2=O [Compound T3]
[1]
  Solubility (w/w%) PGMEA: 20.6% w/w%
  Solubility (w/w%) Cyclohexanone: 42.0% w/w%
  Solubility (w/w%) GBL: 2.2% w/w%
[2]
  Solubility (w/w%) in PGMEA: 20.6% w/w%
[3]; FIG. 1, acetonitrile, before irradiation at 365 nm
  absorption band (λmax): 362 nm
[3]
  Solubility × Photoreactivity: 198%

## CCCCC#Cc1ccc2c3c(cccc13)C(=O)N(OS(=O)(=O)C(F)(F)C(F)(F)C(F)(F)C(F)(F)F)C2=O [Compound T1]
[1]
  Solubility (w/w%) PGMEA: 8.3% w/w%
  Solubility (w/w%) Cyclohexanone: 19.7% w/w%
  Solubility (w/w%) GBL: 1.5% w/w%
[2]
  Solubility (w/w%) in PGMEA: 8.3% w/w%
UV-Vis spectra in ACN
  absorbance at i-line of a mercury lamp versus NIT: much larger than that of NIT
  absorption maximum: 362 nm
[3]
  Solubility × Photoreactivity: 77.2%
